Measured values published in patent US20140120087A1, “TRIAZOLOPYRIDINES” (BAYER INTELLECTUAL PROPERTY GMBH, priority 2011, published 2014).

Assays:
Mps-1 kinase [1] = target: T1, Mps-1 kinase (Homo sapiens, UniProt P33981); assay: Mps-1 kinase assay with 10 μM ATP (TR-FRET)
T1 sequence (P33981 1-857): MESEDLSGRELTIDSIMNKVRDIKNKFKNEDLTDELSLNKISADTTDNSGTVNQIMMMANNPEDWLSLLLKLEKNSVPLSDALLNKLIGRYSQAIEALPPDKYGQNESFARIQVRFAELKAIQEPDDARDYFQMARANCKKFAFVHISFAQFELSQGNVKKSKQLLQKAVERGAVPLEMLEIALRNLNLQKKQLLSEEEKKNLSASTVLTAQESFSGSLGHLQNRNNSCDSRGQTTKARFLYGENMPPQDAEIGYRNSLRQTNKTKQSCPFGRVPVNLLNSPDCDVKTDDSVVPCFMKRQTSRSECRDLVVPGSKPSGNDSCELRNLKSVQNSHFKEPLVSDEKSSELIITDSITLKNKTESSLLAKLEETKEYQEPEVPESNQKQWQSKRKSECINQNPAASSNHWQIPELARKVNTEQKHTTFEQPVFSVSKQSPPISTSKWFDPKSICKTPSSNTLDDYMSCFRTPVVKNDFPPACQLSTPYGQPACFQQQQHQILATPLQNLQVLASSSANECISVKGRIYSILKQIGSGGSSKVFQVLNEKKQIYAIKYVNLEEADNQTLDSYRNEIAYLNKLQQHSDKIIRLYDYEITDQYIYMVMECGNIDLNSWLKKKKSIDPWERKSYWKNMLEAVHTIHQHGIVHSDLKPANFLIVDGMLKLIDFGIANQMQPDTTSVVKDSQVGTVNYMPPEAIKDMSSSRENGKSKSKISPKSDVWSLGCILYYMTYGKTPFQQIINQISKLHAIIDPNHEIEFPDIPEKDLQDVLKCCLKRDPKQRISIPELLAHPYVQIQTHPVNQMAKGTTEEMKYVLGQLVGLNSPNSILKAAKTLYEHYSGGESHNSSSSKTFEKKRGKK

Mps-1 kinase [2] = target: T1, Mps-1 kinase; assay: Mps-1 kinase assay with 2 mM ATP (TR-FRET)

Structure (SMILES)	IC50 (Mps-1 kinase [1])	IC50 (Mps-1 kinase [2])
Cc1cc(C(=O)NCC(F)(F)F)ccc1Nc1nc2ccc(-c3ccc(NC(=O)Cc4ccc(F)cc4)cc3)cn2n1 [Example 12.29, 4-{[6-(4-{[(4-fluorophenyl)-acetyl]amino}phenyl)[1,2,4]triazolo[1,5-a]pyridin-2-yl]amino}-3-methyl-N-(2,2,2-trifluoroethyl)-benzamide]	≤ 1 nM	2.3 nM
COc1cc(S(C)(=O)=O)ccc1Nc1nc2ccc(-c3ccc(C(=O)NCc4ccc(F)cc4F)cc3)cn2n1 [Example 11.01, N-(2,4-difluorobenzyl)-4-(2-{[2-methoxy-4-(methylsulfonyl)phenyl]amino}-[1,2,4]triazolo[1,5-α]pyridin-6-yl)benzamide]	≤ 1 nM	11 nM
COc1cc(S(C)(=O)=O)ccc1Nc1nc2ccc(-c3ccc(NC(=O)Cc4ccccc4)cc3)cn2n1 [Example 12.42, N-[4-(2-{[2-methoxy-4-(methylsulfonyl)phenyl]-amino}[1,2,4]triazolo[1,5-a]pyridin-6-yl)phenyl]-2-phenylacetamide]	≤ 1 nM	12 nM
Cc1cc([S@@+](C)[O-])ccc1Nc1nc2ccc(-c3ccc(NC(=O)Cc4ccc(F)cc4)cc3)cn2n1 (stereo in doubt) [Example 12.33, 2-(4-fluorophenyl)-N-[4-(2-{[2-methyl-4-(methyl-sulfinyl)phenyl]amino}-[1,2,4]triazolo[1,5-a]pyridin-6-yl)phenyl]acetamide]	≤ 1 nM	1.4 nM
CCOc1cc(C(=O)NCCN(C)C)ccc1Nc1nc2ccc(-c3ccc(NC(=O)Cc4ccc(F)cc4)cc3)cn2n1 [Example 12.20, N-[2-(dimethylamino)ethyl]-3-ethoxy-4-{[6-(4-{[(4-fluorophenyl)acetyl]amino}-phenyl)[1,2,4]triazolo[1,5-a]pyridin-2-yl]amino}-benzamide]	≤ 1 nM	≤ 1 nM
CCOc1cc(C(=O)NCCN(C)C)ccc1Nc1nc2ccc(-c3ccc(C(=O)NCc4ccc(F)cc4)cc3)cn2n1 [Example 12.55, N-[2-(dimethylamino)ethyl]-3-ethoxy-4-[(6-{4-[(4-fluoro-benzyl)carbamoyl]phenyl}-[1,2,4]triazolo[1,5-a]pyridin-2-yl)amino]benzamide]	≤ 1 nM	≤ 1 nM
CCS(=O)(=O)c1ccc(Nc2nc3ccc(-c4ccc(C(=O)NCc5ccc(F)cc5)cc4)cn3n2)c(OC(F)F)c1 [Example 12.61, 4-(2-{[2-(difluoromethoxy)-4-(ethylsulfonyl)phenyl]-amino}[1,2,4]triazolo[1,5-a]pyridin-6-yl)-N-(4-fluorobenzyl)benzamide]	≤ 1 nM	6.1 nM
CC(C)(CO)NC(=O)c1ccc(Nc2nc3ccc(-c4ccc(NC(=O)Cc5ccc(F)cc5)cc4)cn3n2)c(OCC(F)(F)F)c1 [Example 12.22, 4-{[6-(4-{[(4-fluorophenyl)-acetyl]amino}phenyl)[1,2,4]triazolo[1,5-a]pyridin-2-yl]amino}-N-(1-hydroxy-2-methylpropan-2-yl)-3-(2,2,2-trifluoroethoxy)benzamide]	≤ 1 nM	≤ 1 nM
COc1cc(C(=O)N(C)CCN(C)C)ccc1Nc1nc2ccc(-c3ccc(C(=O)NCc4ccc(F)cc4)cc3)cn2n1 [Example 12.49, N-[2-(dimethylamino)ethyl]-4-[(6-{4-[(4-fluorobenzyl)-carbamoyl]phenyl}[1,2,4]triazolo [1,5-a]pyridin-2-yl)-amino]-3-methoxy-N-methylbenzamide]	≤ 1 nM	3.4 nM
NC(=O)c1ccc(Nc2nc3ccc(-c4ccc(C(=O)NCc5ccc(F)cc5)cc4)cn3n2)c(OC(F)(F)F)c1 [Example 12.60, 4-[(6-{4-[(4-fluorobenzyl)-carbamoyl]phenyl}[1,2,4]triazolo [1,5-K]pyridin-2-yl)-amino]-3-(trifluoro-methoxy)benzamide]	≤ 1 nM	5 nM
Cc1cc(C(=O)NCC(F)(F)F)ccc1Nc1nc2ccc(-c3ccc(C(=O)NCc4ccc(F)cc4)cc3)cn2n1 [Example 12.66, 4-[(6-{4-[(4-fluorobenzyl)-carbamoyl]phenyl}[1,2,4]triazolo [1,5-a]pyridin-2-yl)-amino]-3-methyl-N-(2,2,2-trifluoroethyl)benzamide]	≤ 1 nM	2 nM
COc1cc(S(C)(=O)=O)ccc1Nc1nc2ccc(-c3ccc(C(=O)NCc4ccc(F)cc4)c(OC)c3)cn2n1 [Example 09.1, N-(4-fluorobenzyl)-2-methoxy-4-(2-{[2-methoxy-4-(methylsulfonyl)phenyl]-amino}[1,2,4]triazolo[1,5-α]pyridin-6-yl)benzamide]	≤ 1 nM	19 nM
Cc1ccc(CNC(=O)c2ccc(-c3ccc4nc(Nc5ccc(S(C)(=O)=O)cc5C)nn4c3)cc2)cc1 [Example 12.77, N-(4-methylbenzyl)-4-(2-{[2-methyl-4-(methylsulfonyl)-phenyl]amino}[1,2,4]triazolo [1,5-a]pyridin-6-yl)-benzamide]	≤ 1 nM	11 nM
Cc1cc(S(C)(=O)=O)ccc1Nc1nc2ccc(-c3ccc(C(=O)NCc4ccc(F)cc4)cc3)cn2n1 [Example 12.68, N-(4-fluorobenzyl)-4-(2-{[2-methyl-4-(methylsulfonyl)-phenyl]amino}[1,2,4]triazolo [1,5-a]pyridin-6-yl)-benzamide]	≤ 1 nM	1.9 nM
CCN(Cc1ccc(Nc2nc3ccc(-c4ccc(C(=O)NCc5ccc(F)cc5)cc4)cn3n2)c(OC)c1)C(C)(C)CO [Example 12.53, 4-{2-[(4-{[ethyl(1-hydroxy-2-methylpropan-2-yl)amino]-methyl}-2-methoxyphenyl)-amino][1,2,4]triazolo[1,5-a]pyridin-6-yl}-N-(4-fluoro-benzyl)benzamide]	≤ 1 nM	6.9 nM
CS(=O)(=O)c1ccc(Nc2nc3ccc(-c4ccc(C(=O)NCc5ccc(F)cc5)cc4)cn3n2)c(OCC(F)(F)F)c1 [Example 02.27, N-(4-fluorobenzyl)-4-(2-{[4-(methylsulfonyl)-2-(2,2,2-trifluoroethoxy)-phenyl]amino}[1,2,4]triazolo[1,5-α]pyridin-6-yl)benzamide]	≤ 1 nM	≤ 1 nM
CCOc1cc(C(=O)NCCF)ccc1Nc1nc2ccc(-c3ccc(C(=O)NCc4ccc(F)cc4)cc3)cn2n1 [Example 12.57, 3-ethoxy-4-[(6-{4-[(4-fluoro-benzyl)carbamoyl]phenyl}-[1,2,4]triazolo[1,5-a]pyridin 2-yl)amino]-N-(2-fluoroethyl)benzamide]	≤ 1 nM	≤ 1 nM
COc1cc(CO)ccc1Nc1nc2ccc(-c3ccc(NC(=O)Cc4ccc(F)cc4)cc3)cn2n1 [Example 12.84, 2-(4-fluorophenyl)-N-[4-(2-{[4-(hydroxymethyl)-2-methoxyphenyl]amino}-[1,2,4]triazolo[1,5-α]pyridin-6-yl)phenyl]acetamide]	≤ 1 nM	≤ 1 nM
Cc1cc(C(=O)NCC(F)(F)F)ncc1Nc1nc2ccc(-c3ccc(NC(=O)Cc4ccc(F)cc4)cc3)cn2n1 [Example 12.38, 5-{[6-(4-{[(4-fluorophenyl)-acetyl]amino}phenyl)[1,2,4]triazolo[1,5-a]pyridin-2-yl]amino}-4-methyl-N-(2,2,2-trifluoroethyl)-pyridine-2-carboxamide]	≤ 1 nM	–
